Like-named read-outs stand apart in the source and are kept apart here.
Columns and labels:
[1] = target: PDK1 (Homo sapiens (Human), UniProt O15530); test: PDK1 kinase assay (coupled PDK1/AKT/FAM-crosstide assay, IMAP fluorescence polarization); type: biochemical; settings: inhibition of phospo-PDK1 in vitro
Summary of the method: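 GST-tagged human PDK1 (aa 51-359, 0.75 nM) from insect cells activated unphosphorylated GST-AKT2 (aa 140-467–PIFtide fusion, 10 nM), which phosphorylated 100 nM FAM-crosstide; 40 μM ATP, pH 7.2 Tris/MgCl2, 30 min at 25° C. IMAP fluorescence polarization read-out; ΔmP versus compound concentration fitted with a 4-parameter curve.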

[2] = tested on: phospho-akt (Thr308) in PC-3 cells; test: Inhibition of phospho-akt (Thr308) in PC-3 cells, MSD phospho-akt 308 ELISA kit; type: cell-based; settings: Homo sapiens, inhibition of P308 Akt in PC-3 cells, 2 hours, no serum, MSD, read-out: EC50
Summary of the method: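 PC-3 cells were seeded overnight in growth medium with 10% FBS, then exposed to compound serially diluted threefold in serum-free medium for 2 hours. Lysates were captured overnight at 4 degrees on MSD plates and phospho-Akt Thr308 was detected electrochemiluminescently, against DMSO high and 5 μM wortmannin low controls.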

PDK1, sequence (O15530 51-359): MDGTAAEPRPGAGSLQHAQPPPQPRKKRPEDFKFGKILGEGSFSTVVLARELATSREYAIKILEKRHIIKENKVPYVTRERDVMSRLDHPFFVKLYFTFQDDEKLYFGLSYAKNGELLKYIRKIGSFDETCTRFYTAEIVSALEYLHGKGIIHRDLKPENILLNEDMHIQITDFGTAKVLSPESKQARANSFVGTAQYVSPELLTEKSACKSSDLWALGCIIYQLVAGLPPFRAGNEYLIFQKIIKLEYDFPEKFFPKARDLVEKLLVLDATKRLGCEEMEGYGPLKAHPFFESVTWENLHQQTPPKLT

SMILES | IC50 [1] [nM] | EC50 [2] [nM] | EC50 ([2]; PC-3, 2 h) [nM]
COCCNC(=O)c1c(C)[nH]c(/C=C2\C(=O)Nc3cc(/C=C/CNc4ncccc4C(=O)NCc4ccc(F)c(F)c4)ccc32)c1C [Example 15.19, N-(3,4-difluorobenzyl)-2-((E)-3-((Z)-3-((4-(2-methoxyethylcarbamoyl)-3,5-dimethyl-1H-pyrrol-2-yl]-methylene)-2-oxoindolin-6-yl)allylamino) nicotinamide] | < 100 | < 1000 | –
C[C@H](NC(=O)c1nccnc1NC/C=C/c1ccc2c(c1)NC(=O)/C2=C\c1cnc[nH]1)c1ccc(F)cc1 [Example 15.20, 3-((E)-3-((Z)-3-((1H-imidazol-5-yl)methylene)-2-oxoindolin-6-yl)allylamino)-N-((S)-1-(4-fluorophenyl)ethyl) pyrazine-2-carboxamide] | < 100 | < 1000 | –
O=C1Nc2cc(/C=C/CNc3ncccc3C(=O)NCc3ccc(F)cc3)ccc2/C1=C/c1cnc[nH]1 [Example 15.21, 2-((E)-3-((Z)-3-((1H-imidazol-5-yl)methylene)-2-oxoindolin-6-yl)allylamino)-N-(4-fluorobenzyl)nicotinamide] | < 100 | < 1000 | –
C[C@H](NC(=O)c1cccnc1NC/C=C/c1ccc2c(c1)NC(=O)/C2=C\c1cnc[nH]1)c1ccc(F)cc1 [Example 15.22, 2-((E)-3-((Z)-3-((1H-imidazol-5-yl)methylene)-2-oxoindolin-6-yl)allylamino)-N-((S)-1-(4-fluorophenyl)ethyl) nicotinamide] | < 100 | < 1000 | –
O=C(NCc1ccc(F)c(F)c1)c1cccnc1NCCOc1ccc2c(c1)[nH]c1ncccc12 [Example 21, 2-(2-(9H-pyrido[2,3-b]indol-7-yloxy)ethylamino)-N-(3,4-difluorobenzyl)nicotinamide] | < 100 | 1000 to 10000 | –
O=C1Nc2cc(OCCNc3ncccc3C(=O)NCc3ccc(F)c(F)c3)ccc2/C1=C/c1cnc[nH]1 [Example 22, (Z)-2-(2-(3-((1H-imidazol-5-yl)methylene)-2-oxoindolin-6-yloxy)ethylamino)-N-(3,4-difluorobenzyl)nicotinamide] | < 100 | < 1000 | –
O=C1Nc2cc(OCCNc3ncccc3C(=O)NCc3ccc(F)cc3)ccc2/C1=C/c1cnc[nH]1 [Example 23, (Z)-2-(2-(3-((1H-imidazol-5-yl)methylene)-2-oxoindolin-6-yloxy)ethylamino)-N-(4-fluorobenzyl)nicotinamide] | < 100 | < 1000 | –
C[C@H](COc1ccc2c(c1)NC(=O)/C2=C\c1cnc[nH]1)Nc1ncccc1C(=O)NCc1ccc(F)c(F)c1 [Example 24, (R,Z)-2-(1-(3-((1H-imidazol-5-yl)methylene)-2-oxoindolin-6-yloxy)propan-2-ylamino)-N-(3,4-difluorobenzyl)nicotinamide] | < 100 | 1000 to 10000 | –
C[C@H](NC(=O)c1nc(C#N)cnc1NCc1ccc(-c2cnc3[nH]nc(N)c3c2)cc1)c1ccc(F)c(F)c1 [Example 25, (S)-3-(4-(3-amino-1H-pyrazolo[3,4-b]pyridin-5-yl)benzylamino)-6-cyano-N-(1-(3,4-difluorophenyl)ethyl)pyrazine-2-carboxamide] | < 100 | < 1000 | –

Other lines, results leading:

IC50 [1] [nM] | EC50 [2] [nM] | EC50 ([2]; PC-3, 2 h) [nM] | SMILES
< 100 | < 1000 | – | O=C(NCc1ccc(F)c(F)c1)c1cccnc1N[C@@H](COc1ccc2[nH]c(=O)[nH]c2c1)c1ccccc1 [Example 16.1, (R)-N-(3,4-difluorobenzyl)-2-(2-(2-oxo-2,3-dihydro-1H-benzo[d]imidazol-5-yloxy)-1-phenylethylamino)nicotinamide]
< 100 | 1000 to 10000 | – | O=C(NCc1ccc(F)c(F)c1)c1cccnc1NCCOc1ccc2[nH]c(=O)[nH]c2c1 [Example 16.2, N-(3,4-difluorobenzyl)-2-(2-(2-oxo-2,3-dihydro-1H-benzo[d]imidazol-5-yloxy)-ethylamino)nicotinamide]
100 to 1000 | 1000 to 10000 | – | C[C@H](NC(=O)c1cccnc1N[C@@H](COc1ccc2[nH]c(=O)[nH]c2c1)c1ccccc1)c1ccc(F)c(F)c1 [Example 16.3]
1000 to 5000 | – | 1000 to 10000 | O=C(NCc1ccc(F)c(F)c1)c1cc(C(F)(F)F)cnc1N[C@@H](COc1ccc2[nH]c(=O)[nH]c2c1)c1ccccc1 [Example 16.4, (R)-N-(3,4-difluorobenzyl)-2-(2-(2-oxo-2,3-dihydro-1H-benzo[d]imidazol-5-yloxy)-1-phenylethylamino)-5-(trifluoromethyl)nicotinamide]
> 5000 | 1000 to 10000 | – | COc1ccc([C@H](COc2ccc([N+](=O)[O-])c(N)c2)Nc2ncccc2C(=O)N[C@@H](C)c2ccc(F)c(F)c2)cc1 [Example 16.5, 2-((R)-2-(3-amino-4-nitrophenoxy)-1-(4-methoxyphenyl)ethylamino)-N-((S)-1-(3,4-difluorophenyl)ethyl)nicotinamide]
> 5000 | > 10000 | – | COc1ccc([C@H](COc2ccc(N)c(N)c2)Nc2ncccc2C(=O)N[C@@H](C)c2ccc(F)c(F)c2)cc1 [Example 16.6, 2-((R)-2-(3,4-diaminophenoxy)-1-(4-methoxyphenyl)ethylamino)-N-((S)-1-(3,4-difluorophenyl)ethyl)nicotinamide]
> 5000 | > 10000 | – | C[C@H](NC(=O)c1cccnc1N[C@@H](COc1ccc([N+](=O)[O-])c(N)c1)c1cccc(Cl)c1)c1ccc(F)c(F)c1 [Example 16.7, 2-((R)-2-(3-amino-4-nitrophenoxy)-1-(3-chlorophenyl)ethylamino)-N-((S)-1-(3,4-difluorophenyl)ethyl)nicotinamide]
1000 to 5000 | – | > 10000 | COc1ccc([C@H](COc2ccc3[nH]c(=O)[nH]c3c2)Nc2ncccc2C(=O)N[C@@H](C)c2ccc(F)c(F)c2)cc1 [Example 16.8, N-((S)-1-(3,4-difluorophenyl)ethyl)-2-(((R)-1-(4-methoxyphenyl)-2-(2-oxo-2,3-dihydro-1H-benzo[d]imidazol-5-yloxy)ethyl)amino)nicotinamide]
100 to 1000 | < 1000 | – | C[C@H](NC(=O)c1cccnc1N[C@@H](COc1ccc2[nH]c(=O)[nH]c2c1)c1cccc(Cl)c1)c1ccc(F)c(F)c1 [Example 16.9, 2-((R)-1-(3-chlorophenyl)-2-(2-oxo-2,3-dihydro-1H-benzo[d]imidazol-5-yloxy)ethylamino)-N-((S)-1-(3,4-difluorophenyl)ethyl)nicotinamide]
100 to 1000 | < 1000 | – | C[C@H](NC(=O)c1cc(C#N)cnc1N[C@@H](COc1ccc2[nH]c(=O)[nH]c2c1)c1ccccc1)c1ccc(F)cc1 [Example 16.10]
< 100 | < 1000 | – | N#Cc1cnc(N[C@@H](COc2ccc3[nH]c(=O)[nH]c3c2)c2ccccc2)c(C(=O)NCc2ccc(F)c(F)c2)n1 [Example 16.11, (R)-6-cyano-N-(3,4-difluorobenzyl)-3-(2-(2-oxo-2,3-dihydro-1H-benzo[d]imidazol-5-yloxy)-1-phenylethylamino) pyrazine-2-carboxamide]
< 100 | < 1000 | – | N#Cc1cnc(N[C@@H](COc2ccc3[nH]c(=O)[nH]c3c2)c2ccccc2)c(C(=O)NCc2ccc(F)cc2)n1 [Example 16.12, (R)-6-cyano-N-(4-fluorobenzyl)-3-(2-(2-oxo-2,3-dihydro-1H-benzo[d]imidazol-5-yloxy)-1-phenylethylamino) pyrazine-2-carboxamide]
< 100 | 1000 to 10000 | – | C[C@H](NC(=O)c1cccnc1N[C@@H](COc1ccc2c(c1)[nH]c(=O)n2C)c1ccccc1)c1ccc(F)c(F)c1 [Example 16.13, N—((S)-1-(3,4-difluorophenyl)ethyl)-2-((R)-2-(1-methyl-2-oxo-2,3-dihydro-1H-benzo[d]imidazol-5-yloxy)-1-phenylethylamino)nicotinamide]
100 to 1000 | > 10000 | – | O=C(NCc1ccc(F)c(F)c1)c1cccnc1Nc1cccc(-c2cccc3c2CNC3=O)c1 [Example 17.1, N-(3,4-difluorobenzyl)-2-(3-(1-oxoisoindolin-4-yl)phenylamino)-nicotinamide]
> 5000 | > 10000 | – | Cc1ccc(Nc2ncccc2C(=O)NCc2ccc(F)c(F)c2)cc1-c1ccc2c(c1)CNC2=O [Example 17.2]
100 to 1000 | > 10000 | – | O=C(NCc1ccc(F)c(F)c1)c1cccnc1Nc1cccc(-c2cccn3c(=O)[nH]nc23)c1 [Example 17.3]
< 100 | 1000 to 10000 | – | O=C(NCc1ccc(F)c(F)c1)c1cccnc1NCc1cc(-c2c[nH]c3ncccc23)ccn1 [Example 18.1, 2-((4-(1H-pyrrolo[2,3-b]pyridin-3-yl)pyridin-2-ylmethyl)amino)-N-(3,4-difluorobenzyl)nicotinamide]
> 5000 | > 10000 | – | C[C@H](NC(=O)c1cccnc1NCCOc1ccc2cc[nH]c2c1)c1ccc(F)c(F)c1 [Example 19.1, (S)-2-(2-(1H-indol-6-yloxy)ethylamino)-N-(1-(3,4-difluorophenyl)ethyl)nicotinamide]
< 100 | < 1000 | – | C[C@H](NC(=O)c1cccnc1NCCOc1ccc2c(c1)NC(=O)/C2=C\c1cnc[nH]1)c1ccc(F)c(F)c1 [Example 19.2, (S,Z)-2-(2-(3-((1H-imidazol-5-yl)methylene)-2-oxoindolin-6-yloxy)ethylamino)-N-(1-(3,4-difluorophenyl)ethyl)nicotinamide]

— patent US10030016B2 (Sunesis Pharmaceuticals, Inc., priority 2009, dated 2018)
